Here are results for 7 molecules from patent US7795226B2, “Control of radiation injury” (Biotempt B.V., priority 2006, dated 2010).

Experiment [1] relates to gamma-irradiated mice. As to conditions: cited from earlier work; for protection against gamma-irradiation (in words): mouse, in vivo.
Experiment [2] deals with gamma-irradiated mice. The following applies: cited from earlier work.
Another experiment relates to radiation exposure. As to conditions: in vivo; cited from earlier work.
For experiment [3], the system named is BALB/c mice exposed whole body to 10 Gy 137Cs-γ-irradiation. Nature of the experiment: Whole body γ-irradiation (10 Gy), peptide 1.5 hours before irradiation. In kind it is in vivo. The following applies: 10 mg/kg i.p. 1.5 hours before 10 Gy; for Watery eyes / Weight loss: affected/total; for Mortality: dead/total. As for the experimental part:
(§1) In the first experiment, 12-week-old female BALB/c mice were treated intraperitoneally with a single injection of either PBS (n=9) or with a peptide (LQGV (SEQ ID NO:117), VLPALP (SEQ ID NO:140), LPGCPRGVNPVVS (SEQ ID NO:114), MTRVLQGVLPALPQVVC (SEQ ID NO:113); n=8, 10 mg/kg). One and a half hours after the treatment, mice were exposed whole body to a single dose of 10 Gy ^137Cs-γ-irradiation. In the second experiment, 12-week-old female BALB/c mice were first exposed whole body to a single dose of 10 Gy ^137Cs-γ-irradiation and then 1.5 hours after the irradiation treated intraperitoneally with a single injection of either PBS (n=9) or with a peptide (n=8 or 9, 10 mg/kg).

Experiment [4] shares this test system. The experiment in a line: Whole body γ-irradiation (10 Gy), peptide 1.5 hours after irradiation. In kind it is in vivo. The following applies: 10 mg/kg i.p. 1.5 hours after 10 Gy; for Watery eyes / Weight loss: affected/total; for Mortality: dead/total. On the procedure: as §1

With `C[C@]12CCC(=O)C=C1CC[C@@H]1[C@@H]2CC[C@]2(C)C(=O)CC[C@@H]12` [androstenedione], the “protection against gamma-irradiation (in words)” value with gamma-irradiated mice [1] was “No protection was observed”.
In the case of `C[C@]12CC[C@H](O)CC1=CC[C@@H]1[C@@H]2CC[C@]2(C)C(=O)CC[C@@H]12` [DHEA, dehydroepiandrosterone], the “protection against gamma-irradiation (in words)” value with gamma-irradiated mice [1] is reported as “No protection was observed”.
In the case of `C[C@]12CC[C@H]3[C@@H](CC=C4C[C@@H](O)CC[C@@]43C)[C@@H]1CC[C@@H]2O` [Peptide 5-AED, 5-androstenediol], the dose reduction factor in the experiment on gamma-irradiated mice [1] (sc administration prior to WBI, from probit survival curves) is given as 1.3.
Regarding `O=c1c(-c2ccc(O)cc2)coc2cc(O)cc(O)c12` [genisteine], in the experiment on gamma-irradiated mice [2] (best dose 200 mg/kg, 24 hours before irradiation), the “Dose reduction Factor (DRF)” value was 1.16. Also, the “radioprotection (in words)” value with gamma-irradiated mice [2] (given one hour prior to whole body irradiation) is “no radioprotection was observed”.
As for `O=C(O)c1ccc(/C=C/S(=O)(=O)Cc2ccc(Cl)cc2)cc1` [ON-01210, 4-carboxystyrl-4-chlorobenzylsulfone], the “radiation protection activity (in words)” value with radiation exposure is reported as “protective only if it is given pre-radiation exposure”.
Consider “MTRVLQGVLPALPQVVC [residues 41-57 of loop 2 of the beta-subunit of hCG]”, for which the Watery eyes was 0/8 in experiment [3] (day 0 after irradiation), 1/8 in experiment [3] (day 4 after irradiation), 0/9 in experiment [4] (day 0 after irradiation) and 0/9 in experiment [4] (day 4 after irradiation). In addition, the Weight loss in experiment [3] (day 0 after irradiation) is 0/8; in experiment [3] (day 4 after irradiation) it was 1/8; in experiment [4] (day 0 after irradiation) it was 0/9; in experiment [4] (day 4 after irradiation), 9/9. The Mortality in experiment [3] (day 0 after irradiation) is 0/8; in experiment [3] (day 3 after irradiation) it was 0/8; in experiment [3] (day 4 after irradiation), 0/8; in experiment [3] (day 5 after irradiation), 0/8; in experiment [3] (day 6 after irradiation) it was 7/8; in experiment [3] (day 7 after irradiation), 8/8. Also, the Mortality in experiment [4] (day 0 after irradiation) is 0/9; in experiment [4] (day 3 after irradiation), 0/9; in experiment [4] (day 4 after irradiation), 0/9; in experiment [4] (day 5 after irradiation), 0/9; in experiment [4] (day 6 after irradiation), 5/9; in experiment [4] (day 7 after irradiation) it was 9/9.
Take `C[C@]12CC[C@H]3[C@@H]([C@@H](O)C=C4C[C@@H](O)CC[C@@]43C)[C@@H]1CC[C@@H]2O` [AET, 5-androstene-3B,7B, 17B-triol]: the “protection against gamma-irradiation (in words)” value with gamma-irradiated mice [1] is listed as “No protection was observed”.
